In the OligoGym collection:
Where “and” joins values, the source holds several entries; their conditions need not be identical. Equal entries are not always repeated. After the bases stand the sugars from the 5' end (letter, count) and the backbone: PS all phosphorothioate, else s phosphorothioate and o phosphodiester by linkage. Methylation of C is not given here. e = 2'-O-(2-methoxyethyl) (MOE); d = 2'-deoxy (DNA)

Molecular target: DGAT2
Conditions: ASO

**Q.** Which target mRNA inhibition (HepG2, 0.12 µM) does the source give for “GTCAGCAGGTTGTGTGTCTT (sugars e5 d10 e5, PS)” here?
**A.** Its target mRNA inhibition is 64% and 59%.

**Q.** And the target mRNA inhibition (HepG2, 2.5 µM)?
**A.** The target mRNA inhibition was 30%.

**Q.** And the target mRNA inhibition (HepG2, 10 µM)?
**A.** The target mRNA inhibition was 76%.

**Q.** And the target mRNA inhibition (HepG2, 20 µM)?
**A.** Its target mRNA inhibition is 93%.

**Q.** What does the source list for “GTCATACTTACTGTTCAGCA (sugars e5 d10 e5, PS)”?
**A.** target mRNA inhibition (HepG2, 2.5 µM): 78% and 65%; target mRNA inhibition (HepG2, 10 µM): 94% and 91%

**Q.** “GTCCTAGTGCCCCAGGG (sugars e3 d10 e4, PS)” was tested. Which target mRNA inhibition (HepG2, 2.5 µM) did it give?
**A.** Its target mRNA inhibition is 76% and 86%.

**Q.** And the target mRNA inhibition (HepG2, 10 µM)?
**A.** The target mRNA inhibition was 93% and 95%.

**Q.** How did the target mRNA inhibition (HepG2, 0.12 µM) turn out when “GTCCTGCAGTTTCAGGACTA (sugars e5 d10 e5, PS)” was run?
**A.** The target mRNA inhibition was 54%.

**Q.** Which results are given for “GTCTGGGAACAGCAGCATCA (sugars e5 d10 e5, PS)”?
**A.** target mRNA inhibition (HepG2, 2.5 µM): 72%; target mRNA inhibition (HepG2, 10 µM): 89%

**Q.** What does the source list for “GTCTGTGCTGCATCCATGTC (sugars e5 d10 e5, PS)”?
**A.** target mRNA inhibition (HepG2, 2.5 µM): 41% and 50%; target mRNA inhibition (HepG2, 10 µM): 74%

**Q.** “GTGATGACTTCCCAGGG (sugars e3 d10 e4, PS)” was tested. Which target mRNA inhibition (HepG2, 2.5 µM) did it give?
**A.** The target mRNA inhibition was 66% and 82%.

**Q.** What about the target mRNA inhibition (HepG2, 10 µM) of the same sequence?
**A.** Its target mRNA inhibition is 67% and 84%.

**Q.** Which target mRNA inhibition (HepG2, 2.5 µM) does the source give for “GTGATTATTCTAAAACTCAA (sugars e5 d10 e5, PS)” here?
**A.** The target mRNA inhibition was 34%.

**Q.** What about the target mRNA inhibition (HepG2, 10 µM) of the same sequence?
**A.** The target mRNA inhibition was 71%.

**Q.** With “GTGCAGCCTACAAGAGCCTG (sugars e5 d10 e5, PS)” as the sequence, how does the target mRNA inhibition (HepG2, 2.5 µM) read?
**A.** The target mRNA inhibition was 67%.

**Q.** And the target mRNA inhibition (HepG2, 10 µM)?
**A.** The target mRNA inhibition was 86%.

**Q.** For “GTGCTCTCCAACTCCTCCCC (sugars e5 d10 e5, PS)”, which target mRNA inhibition (HepG2, 0.12 µM) is on record?
**A.** Its target mRNA inhibition is 34%.

**Q.** “GTGCTTTCTAAGTACCCTTT (sugars e5 d10 e5, PS)” was tested. Which target mRNA inhibition (HepG2, 2.5 µM) did it give?
**A.** The target mRNA inhibition was 81% and 78%.

**Q.** What about the target mRNA inhibition (HepG2, 10 µM) of the same sequence?
**A.** Its target mRNA inhibition is 92% and 89%.

**Q.** “GTGGGAAAGGCACAGGCTTT (sugars e5 d10 e5, PS)” was tested. Which target mRNA inhibition (HepG2, 0.12 µM) did it give?
**A.** The target mRNA inhibition was 53%.

**Q.** Which results are given for “GTGGTCTGGGAACAGCAGCA (sugars e5 d10 e5, PS)”?
**A.** target mRNA inhibition (HepG2, 2.5 µM): 72% and 61%; target mRNA inhibition (HepG2, 10 µM): 66% and 72%

**Q.** How did the target mRNA inhibition (HepG2, 2.5 µM) turn out when “GTGGTTGCAATGTTGCC (sugars e3 d10 e4, PS)” was run?
**A.** Its target mRNA inhibition is 67% and 80%.

**Q.** And the target mRNA inhibition (HepG2, 10 µM)?
**A.** The target mRNA inhibition was 88% and 94%.

**Q.** With “GTGTGTCTTCACCAGCTGGA (sugars e5 d10 e5, PS)” as the sequence, how does the target mRNA inhibition (HepG2, 0.12 µM) read?
**A.** The target mRNA inhibition was 53%.

**Q.** For “GTTCCTGGTGGTCAGCAGGT (sugars e5 d10 e5, PS)”, which target mRNA inhibition (HepG2, 0.12 µM) is on record?
**A.** Its target mRNA inhibition is 63%.

**Q.** Which results are given for “GTTCTTGTCCTGGTCCCAGT (sugars e5 d10 e5, PS)”?
**A.** target mRNA inhibition (HepG2, 2.5 µM): 83% and 68%; target mRNA inhibition (HepG2, 10 µM): 95% and 93%

**Q.** With “GTTCTTTTGGAAGGGTGGAG (sugars e5 d10 e5, PS)” as the sequence, how does the target mRNA inhibition (HepG2, 0.12 µM) read?
**A.** The target mRNA inhibition was 52%.

**Q.** For “GTTGCAATGTTGCCATC (sugars e3 d10 e4, PS)”, which target mRNA inhibition (HepG2, 2.5 µM) is on record?
**A.** The target mRNA inhibition was 69% and 75%.

**Q.** What about the target mRNA inhibition (HepG2, 10 µM) of the same sequence?
**A.** Its target mRNA inhibition is 89% and 96%.

**Q.** How did the target mRNA inhibition (HepG2, 2.5 µM) turn out when “GTTGGTCTTTTTGGCTGCCC (sugars e5 d10 e5, PS)” was run?
**A.** Its target mRNA inhibition is 77% and 67%.

**Q.** What about the target mRNA inhibition (HepG2, 10 µM) of the same sequence?
**A.** The target mRNA inhibition was 88% and 86%.

**Q.** Which results are given for “GTTTACTGCATAGCTGAGCA (sugars e5 d10 e5, PS)”?
**A.** target mRNA inhibition (HepG2, 2.5 µM): 69% and 82%; target mRNA inhibition (HepG2, 10 µM): 79% and 96%

**Q.** Which target mRNA inhibition (HepG2, 2.5 µM) does the source give for “GTTTAGGCTATGGTCTGAGC (sugars e5 d10 e5, PS)” here?
**A.** Its target mRNA inhibition is 85% and 75%.

**Q.** What about the target mRNA inhibition (HepG2, 10 µM) of the same sequence?
**A.** Its target mRNA inhibition is 92%.

**Q.** “GTTTGCTCAGTTCTTCCAAC (sugars e5 d10 e5, PS)” was tested. Which target mRNA inhibition (HepG2, 2.5 µM) did it give?
**A.** Its target mRNA inhibition is 83% and 78%.

**Q.** What about the target mRNA inhibition (HepG2, 10 µM) of the same sequence?
**A.** The target mRNA inhibition was 94% and 90%.

**Q.** With “TAACCCACAGACACCCATGA (sugars e5 d10 e5, PS)” as the sequence, how does the target mRNA inhibition (HepG2, 0.12 µM) read?
**A.** The target mRNA inhibition was 14%.

**Q.** With “TAATCTGCTGCTCAGAAGGC (sugars e5 d10 e5, PS)” as the sequence, how does the target mRNA inhibition (HepG2, 0.12 µM) read?
**A.** Its target mRNA inhibition is 36%.

**Q.** Which target mRNA inhibition (HepG2, 0.12 µM) does the source give for “TAATTTCTTTTAAATAACCC (sugars e5 d10 e5, PS)” here?
**A.** Its target mRNA inhibition is 0%.

**Q.** “TAGAGCACTTGATCTGGGAC (sugars e5 d10 e5, PS)” was tested. Which target mRNA inhibition (HepG2, 2.5 µM) did it give?
**A.** The target mRNA inhibition was 38% and 46%.

**Q.** What about the target mRNA inhibition (HepG2, 10 µM) of the same sequence?
**A.** Its target mRNA inhibition is 81% and 85%.

**Q.** For “TAGCATTGCCACTCCCATTC (sugars e5 d10 e5, PS)”, which target mRNA inhibition (HepG2, 0.12 µM) is on record?
**A.** The target mRNA inhibition was 71%.

**Q.** Which target mRNA inhibition (HepG2, 2.5 µM) does the source give for “TAGCTCTCAGTGAAGCTGGA (sugars e5 d10 e5, PS)” here?
**A.** The target mRNA inhibition was 84% and 81%.

**Q.** What about the target mRNA inhibition (HepG2, 10 µM) of the same sequence?
**A.** The target mRNA inhibition was 90% and 91%.

**Q.** How did the target mRNA inhibition (HepG2, 2.5 µM) turn out when “TAGGCATGCTTCCTCCCACT (sugars e5 d10 e5, PS)” was run?
**A.** The target mRNA inhibition was 65%.

**Q.** What about the target mRNA inhibition (HepG2, 10 µM) of the same sequence?
**A.** Its target mRNA inhibition is 84%.

**Q.** With “TAGGCTTTAGAAATTCACCA (sugars e5 d10 e5, PS)” as the sequence, how does the target mRNA inhibition (HepG2, 2.5 µM) read?
**A.** Its target mRNA inhibition is 71% and 72% and 76%.

**Q.** And the target mRNA inhibition (HepG2, 10 µM)?
**A.** The target mRNA inhibition was 89% and 82% and 91%.

**Q.** How did the target mRNA inhibition (HepG2, 0.12 µM) turn out when “TATAATTTCTTTTAAATAAC (sugars e5 d10 e5, PS)” was run?
**A.** Its target mRNA inhibition is 0%.

**Q.** Which target mRNA inhibition (HepG2, 0.12 µM) does the source give for “TATGCCTGGGAACTTCTTGC (sugars e5 d10 e5, PS)” here?
**A.** The target mRNA inhibition was 26%.

**Q.** Which target mRNA inhibition (HepG2, 0.12 µM) does the source give for “TCAAACCTAGGTTCAGACTT (sugars e5 d10 e5, PS)” here?
**A.** Its target mRNA inhibition is 47%.

**Q.** “TCACCAGCTGGATGGGAAAG (sugars e5 d10 e5, PS)” was tested. Which target mRNA inhibition (HepG2, 0.12 µM) did it give?
**A.** The target mRNA inhibition was 22%.

**Q.** With “TCACCAGGGCCTCCATGTAC (sugars e3 d14 e3, PS)” as the sequence, how does the target mRNA inhibition (HepG2, 0.12 µM) read?
**A.** Its target mRNA inhibition is 68%.

**Q.** How did the target mRNA inhibition (HepG2, 0.12 µM) turn out when “TCAGAGACTCAGCCGCACCC (sugars e5 d10 e5, PS)” was run?
**A.** The target mRNA inhibition was 43% and 55%.

**Q.** With “TCAGCAGGTTGTGTGTCTTC (sugars e2 d13 e5, PS)” as the sequence, how does the target mRNA inhibition (HepG2, 0.12 µM) read?
**A.** The target mRNA inhibition was 57%.

**Q.** For “TCAGCAGGTTGTGTGTCTTC (sugars e5 d10 e5, PS)”, which target mRNA inhibition (HepG2, 0.12 µM) is on record?
**A.** Its target mRNA inhibition is 56%.

**Q.** What about the target mRNA inhibition (HepG2, 2.5 µM) of the same sequence?
**A.** Its target mRNA inhibition is 3%.

**Q.** Which results are given for “TCATACTAGACTATGCAGCC (sugars e5 d10 e5, PS)”?
**A.** target mRNA inhibition (HepG2, 2.5 µM): 72%; target mRNA inhibition (HepG2, 10 µM): 85%

**Q.** What does the source list for “TCATACTTACTGTTCAGCAG (sugars e5 d10 e5, PS)”?
**A.** target mRNA inhibition (HepG2, 2.5 µM): 74% and 65%; target mRNA inhibition (HepG2, 10 µM): 93% and 89%

**Q.** With “TCATCTTTCCAGATCCGGAC (sugars e5 d10 e5, PS)” as the sequence, how does the target mRNA inhibition (HepG2, 2.5 µM) read?
**A.** Its target mRNA inhibition is 76%.

**Q.** What about the target mRNA inhibition (HepG2, 10 µM) of the same sequence?
**A.** The target mRNA inhibition was 89%.

**Q.** What does the source list for “TCCAAGTGTACTTTGAGCAT (sugars e5 d10 e5, PS)”?
**A.** target mRNA inhibition (HepG2, 2.5 µM): 58% and 54%; target mRNA inhibition (HepG2, 10 µM): 84% and 91%
